Molecular target: MDM2 (Homo sapiens, UniProt Q00987)
Assay: Fluorescence polarization
Type: binding
Conditions: FP; 4-chloro-phenyl anchor instead of 6-chloro-indole

MDM2, sequence (Q00987 whole entry): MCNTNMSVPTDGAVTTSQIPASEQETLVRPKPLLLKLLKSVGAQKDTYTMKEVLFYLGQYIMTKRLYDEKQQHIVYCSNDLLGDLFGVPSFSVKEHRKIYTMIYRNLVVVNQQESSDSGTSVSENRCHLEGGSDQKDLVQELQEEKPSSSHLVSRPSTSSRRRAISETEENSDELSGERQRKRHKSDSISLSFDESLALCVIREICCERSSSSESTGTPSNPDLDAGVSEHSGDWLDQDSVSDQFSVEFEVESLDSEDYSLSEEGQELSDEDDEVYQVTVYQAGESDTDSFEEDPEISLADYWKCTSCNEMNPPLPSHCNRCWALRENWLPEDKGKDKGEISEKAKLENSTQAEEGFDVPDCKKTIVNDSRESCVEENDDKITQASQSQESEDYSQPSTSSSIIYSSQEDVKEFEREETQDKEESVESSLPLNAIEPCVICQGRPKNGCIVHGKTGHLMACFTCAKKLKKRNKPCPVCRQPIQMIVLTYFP

How did the “activity against MDM2/X” value turn out when CC(C)(C)NC(=O)C(c1ccc(Cl)cc1)N1C(=O)CC1c1ccc(OCc2ccccc2)cc1 (stereo not shown) [Compound 2g] was run?
The value was “did not show any activity”.

Source: paper PMC5637554 (MedChemComm, 2017)
